The source of these data is patent US7223864B2, “2-hydroxyethidium, methods of preparation and uses thereof” (MCW Research Foundation, Inc., priority 2004, dated 2007).

For data set [1] the following is noted: literature value used in competition analysis; cited from earlier work.
Data set [2] concerns X/XO-catalyzed oxidation of HE (superoxide). Description: Oxidation of HE by xanthine/xanthine oxidase (X/XO), fluorescence. The class given is biochemical. Particulars: for effect on increase in fluorescence due to X/XO-catalyzed oxidation of HE: HE 50 μM, DNA 250 μg mL^−1, SOD 20 μg mL^−1, catalase 1000 U mL^−1. As for the experimental part: (A) Incubation mixtures consisted of HE (50 μM), xanthine (1 mM), DTPA (100 μM), and XO (0.05 U mL^−1) in aerated phosphate buffer (100 mM, pH 7.4). Reaction was initiated by the addition of XO and the fluorescence spectrum recorded after 30 min. Shown for comparison is the spectrum obtained from E^+ (50 μM) obtained under identical experimental conditions. (B) Same as (A) but in the presence of DNA (250 μg mL^−1). (C) Incubations contained HE (50 μM), DTPA (100 μM) and DNA (250 μg mL^−1) and xanthine (1 mM) or XO (0.05 U mL^−1), both in the presence and absence of SOD (20 μg mL^−1). (D) Same as (B) but in the presence of catalase (1000 U mL^−1).
(A) Incubation initially consisted of HE (50 μM), xanthine (1 mM), XO (0.025 U mL^−1) and DTPA (100 μM) in phosphate buffer (100 mM, pH 7.4). A 50 μM of DEA/NO added at the point indicated by downward arrow. After the increase in fluorescence intensity ceased, an additional bolus amount of HE was added. (B) Same as (A) except XO (0.005 U mL^−1) and DEA/NO were added at a much lower concentration (10 μM).
(§1) Fluorescence measurements—The oxidation of HE in a superoxide generating system was performed on a Shimadzu RF-5301 PC spectrofluorometer (Shimadzu Scientific Instruments Inc., Japan). Typically, excitation was at 510 nm with a 3 or 5 nm slit width and the spectra were recorded over a wavelength region of 540–800 nm using a 10 or 20 nm slit width. The fluorescence emission spectra indicate the actual color of the product of superoxide and HE reaction, E^+ and HE.

A short description of data set [3]: Fluorescence measurements (fluorescence spectral characteristics). The class given is physicochemical. As to conditions: for Fluorescence color / Emission maximum (nm): /DNA labels = in the presence of DNA; for Extinction coefficient (mM^−1)*: E^+: excitation maximum 518 nm, HE/superoxide product: excitation maximum 480 nm, slit 3 nm, emission slit 20 nm; for Emission maximum (nm): phosphate buffer (100 mM, pH 7.4). On the procedure:
as §1
Superoxide generation was measured to be 8 μM/min.

A short description of data set [4]: Competition kinetic analysis of the reaction between HE and superoxide. Particulars: tentative, competition with BMPO and Cu, Zn-SOD. As for the experimental part:
Kinetic analysis of the reaction between HE and superoxide—The rate constant between HE and superoxide was calculated from competition experiments. At saturating concentrations of HE, superoxide will be consumed as follows:
Dismutation of superoxide was not considered in our analysis, because at saturating concentrations of HE (compared to superoxide flux), this reaction is negligible (Vásquez-Vivar, J. et al. Free Radic. Biol. Med. 31:975–985, 2001). Thus, assuming a steady-state approximation, the rate of superoxide consumption will be equal to new fluorescent product (P) formation, defined by
[formula] where kHE is the apparent rate constant for the reaction of HE with superoxide under the experimental conditions. Therefore, the ratio between V and V0 that corresponds to the rate of new product formation in the presence and absence of scavenger, respectively, is defined by
[formula] The values of V and V0 can be calculated from variations in fluorescence intensity of new product over time. In these experiments, 5-tert-butoxycarbonyl 5-methyl-1-pyrroline N-oxide (BMPO) and bovine Cu, Zn-SOD were used to trap or dismutate superoxide. The rate constant used for the reaction between BMPO and superoxide was 77±5 M^−1 s^−1 (Rosen, G. et al. J. Biol. Chem. 277:40275–40280, 2002) and 3×10^9 M^−1 s^−1 for Cu, Zn-SOD. […]

For data set [5], the system named is Bovine aortic endothelial cells. Description: Intracellular detection of superoxide with HE in menadione-treated cells. The class given is cell-based. As to conditions: 25 min menadione exposure, then 10 μM HE for 20 min; versus control cells. As for the experimental part: Bovine aortic endothelial cells were treated with menadione, a redox-cycling quinone known to induce cellular oxidative stress. After 25 min of exposure, cells were washed free of extracellular menadione and treated with 10 μM of HE for 20 min. Cells were washed and fluorescent images obtained in a fluorescence microscope. […] Cells were lysed and products extracted with n-butanol. After centrifugation to separate out the cell debris, the top layer of butanol was dried, dissolved in water, and HPLC/fluorescence chromatogram was obtained (FIG. 12). The intense peak eluting at 29 min corresponds to that of 2-hydroxyethidium (FIG. 12, top trace). For better separation in biological samples, a linear increase in CH3CN concentration from 10% to 70% in 46 min was used instead of a linear increase in CH3CN concentration from 10% to 40% in 30 min. The other HPLC analysis conditions were same as described above.

The test system of data set [6] is oxidation of HE by potassium superoxide. Description: Oxidation of HE by potassium superoxide, fluorescence. Particulars: SOD 20 μg mL^−1, KO2 1.1 mM. The class given is biochemical. On the procedure:
(A) Incubations consisted of HE (50 μM), DTPA (100 μM), and KO2 in the presence and absence of DNA (250 μg mL^−1) in phosphate buffer (100 mM, pH 7.4). Superoxide solution was prepared by adding 1 mg of KO2 in 1 mL of dry DMSO and vortexed vigorously for 10 min. The reaction was initiated by adding 40 μL of freshly prepared KO2 in DMSO to 0.46 mL of the above buffer (final concentration of KO2 was 1.1 mM). (B) Same as (A) but also containing SOD (20 μg mL^−1). The extent of oxidation of HE under these conditions is much less than that observed in X/XO.
as §1

Data set [7] concerns the target T1, endothelial nitric oxide synthase (eNOS) (Bos taurus, UniProt P29473).
T1 construct: made in house; host or cells: Escherichia coli
Description: Oxidation of HE by endothelial NOS, fluorescence. The class given is biochemical. As to conditions: SOD 20 μg mL^−1; BH4 10 μM; Ca^2+/CaM. As for the experimental part: (A) Incubations consisted of NADPH (0.1 mM), DTPA (100 μM), HE (50 μM), L-arginine (0.1 mM), purified eNOS (6.25 μg mL^−1), and Ca^2+ (0.2 mM)/CaM (20 μg mL^−1) in a HEPES buffer (50 mM, pH 7.4). Spectra were obtained 30 min after the addition of eNOS to different incubation mixtures. […] (B) Time-dependent changes in fluorescence of the product formed from an incubation mixture containing NADPH (0.1 mM), HE (50 μM), DTPA (100 μM), Ca^2+ (0.2 mM)/CaM (20 μg mL^−1), and purified eNOS (6.25 μg mL^−1) in a HEPES buffer (50 mM, pH 7.4). (C) Same as (B) except in the presence of SOD (20 μg mL^−1).
as §1

With `CC(C)(C)OC(=O)C1(C)CCC=[N+]1[O-]` (centres unmarked) [BMPO, 5-tert-butoxycarbonyl 5-methyl-1-pyrroline N-oxide], the “rate constant used for the reaction with superoxide” value in data set [1] is 77 ± 5 M⁻¹ s⁻¹.
For `CCN(CC)[N+]([O-])=NO` [DEA/NO, 2-(N,N-diethylamino)-diazenolate-2-oxide], the “effect on increase of fluorescence due to superoxide-dependent oxidation of HE by X/XO” value in data set [2] (DEA/NO 10 μM, XO 0.005 U mL^−1) is “inhibited”.
`CC[n+]1c(-c2ccccc2)c2cc(N)ccc2c2ccc(N)cc21` [E^+, ethidium]: in data set [3], the Fluorescence color entry is on record as “Red”, the “Extinction coefficient (mM^−1)*” value worked out at 232 mM⁻¹ and the “Emission maximum (nm)” value is given as 603 nm. In addition, the “Emission maximum (nm)” value in data set [3] (listed as ethidium) turned out to be 605 nm.
Consider `CCN1c2cc(N)ccc2-c2ccc(N)cc2C1c1ccccc1` (centres unmarked) [HE, Hydroethidine (dihydroethidium)], for which the “rate constant between the superoxide anion and HE” value in data set [4] is reported as “approximately 2.6±0.6×10^5 M^−1 s^−1”. In data set [3], the Fluorescence color entry is listed as “Red”, the “Extinction coefficient (mM^−1)*” value stood at 48 mM⁻¹ and the “Emission maximum (nm)” value was 595 nm.
`CC[n+]1c(-c2ccccc2)c2cc(N)ccc2c2cc(O)c(N)cc21` [HE/superoxide product, 2-hydroxyethidium]: in data set [3], the Fluorescence color result is given as “Orange”, the “Extinction coefficient (mM^−1)*” value came to 285 mM⁻¹ and the “Emission maximum (nm)” value worked out at 586 nm. The emission maximum in data set [3] (purified product, in the presence of DNA (250 μg mL^−1) in phosphate buffer) is recorded as 567 nm.
For `CC1=CC(=O)c2ccccc2C1=O` [menadione], in data set [5], the “fluorescence of cells after HE (fluorescence microscope)” value was “intense red fluorescence”.
For “Cu, Zn-SOD: Bovine copper, zinc superoxide dismutase”, the “effect on increase in fluorescence due to X/XO-catalyzed oxidation of HE” value in data set [2] is listed as “completely nullified”. In addition, the “rate constant used for the reaction with superoxide” value in data set [1] is 3e+09 M⁻¹ s⁻¹. Besides, the “effect on formation of fluorescent product from HE and potassium superoxide” value in data set [6] is recorded as “inhibited the formation of this product”. Also, the “effect on oxidation of HE by eNOS” value in data set [7] is reported as “inhibited the oxidation of HE”.
Regarding catalase, in data set [2], the “effect on increase in fluorescence due to X/XO-catalyzed oxidation of HE” value is listed as “increased slightly”.
